In patent US9359351B2, “Cap/endo dual inhibitors and their use in the treatment, amelioration or prevention of a viral disease” (priority 2014, dated 2016) one finds IC50, Kd and inhibition data, which are given here for 43 compounds.

Assay [1] relates to influenza A virus (IAV) A/Aichi/2/68 (H3N2). As to the kind of experiment: microbe, parasite or virus in culture. In kind it is cell-based, influenza A virus A/Aichi/2/68 (H3N2) on MDCK cells. The following applies: H3N2, MDCK; for IC50: 48 h, read-out: CPE IC50; for inhibition at 50 µM: read-out: CPE % inhib.
Assay [2] concerns the target whole RNP complex, IAV strain A/PR/8/34 (Influenza A virus, UniProt P03428+P03433). Nature of the assay: biochemical.
Assay [3] addresses T1, influenza A virus (IAV) PA-Nter fragment (amino acids 1-209) (Influenza A virus, UniProt P31343).
T1 construct: PA-Nter fragment (amino acids 1-209); made in house
Nature of the assay: biochemical. The settings on record: FRET IC50.

The target in assay [4] is PB2 cap binding domain (CBD) of an avian H5N1 influenza virus (Influenza A virus, UniProt Q9Q0V1). Nature of the assay: biochemical. The following applies: Biacore KD. On the technique in general: SPR reads the build-up and loss of mass on a sensor chip optically.

The IC50 is the point on the concentration scale where inhibition reaches its midpoint. A word on the Kd: it is a measure of binding affinity in units of concentration. Read a low Kd as tighter binding.

PB2 cap binding domain (CBD) of an avian H5N1 influenza virus, sequence (Q9Q0V1 318-483 limits assumed): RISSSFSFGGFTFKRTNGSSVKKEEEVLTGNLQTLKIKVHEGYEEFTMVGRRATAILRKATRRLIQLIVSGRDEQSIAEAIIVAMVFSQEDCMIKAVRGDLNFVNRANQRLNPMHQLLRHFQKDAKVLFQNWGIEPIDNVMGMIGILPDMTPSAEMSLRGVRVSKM

With `CC(C)N1CCn2c(CNC(=O)C3(NC(=O)c4c[nH]c5ncc(C6CC6)nc45)CCCCC3)cc(=O)c(O)c2C1=O`, the IC50 in assay [1] was over 50 µM; in assay [2], 0.38 µM.
In the case of `CC(C)N1CCn2c(CNCCNc3nccc4[nH]ncc34)cc(=O)c(O)c2C1=O`, the IC50 in assay [1] was over 50 µM; in assay [3] it was 1.46 µM.
As for `CC(C)N1CCn2c(CNCCOC(=O)c3cccn4c(=O)[nH]nc34)cc(=O)c(O)c2C1=O`, the values for the IC50 in assay [1] and in assay [3] were over 50 µM and 1.41 µM, respectively. Moreover, in assay [4], the Kd is over 100 µM.
On the same counts, the results for `CC(C)N1CCn2c(CNC(=O)c3cccc(NC(=O)c4n[nH]c5ncccc45)c3)cc(=O)c(O)c2C1=O` [drawing 28] are over 50 µM, 1.51 µM and 26.3 µM.
For `CC(C)N1CCn2c(CNC(=O)CNC(=O)c3c[nH]c4ncc(C5CC5)nc34)cc(=O)c(O)c2C1=O`, in that order: over 50 µM, 0.27 µM and 3.96 µM.
For `CC(C)[C@H](Nc1nc(-c2n[nH]c3ncc(F)cc23)ncc1F)C(=O)NCc1cc(=O)c(O)c2n1CCN(C(C)C)C2=O`, in that order: over 50 µM, 8.04 µM and 10 µM.
In the case of `CC(C)N1CCn2c(CNC(=O)[C@H](Cc3cccc(Cl)c3)NC(=O)c3cccn4c(=O)[nH]nc34)cc(=O)c(O)c2C1=O`, the IC50 in assay [1] came to 31.2 µM; in assay [3], 0.291 µM. The Kd in assay [4] was 475 µM.
For `CC(C)N1CCn2c(CNC(=O)[C@@H](Cc3cccc(Cl)c3)NC(=O)c3ccc4n[nH]c(=O)n4c3)cc(=O)c(O)c2C1=O`, in that order: 51.7 µM, 2.88 µM and over 100 µM.
For `CC(C)[C@H](Nc1nc(C2=CN3C(=O)N=NC3C=C2)ncc1F)C(=O)NCc1cc(=O)c(O)c2n1CCN(C(C)C)C2=O` (stereo partly shown), the IC50 in assay [1] and in assay [2] was over 50 µM throughout.
In the case of `CCC(NC(=O)c1cccn2c(=O)[nH]nc12)C(=O)NCc1cc(=O)c(O)c2n1CCN(C(C)C)C2=O` (stereo not shown), the IC50 in assay [1] is over 50 µM; in assay [3], 0.43 µM. Also, binding in assay [4] was characterised by a dissociation constant (Kd) of 6.3 µM.
For `CC(C)N1CCn2c(COC(=O)c3c[nH]c4ncc(C5CC5)nc34)cc(=O)c(O)c2C1=O`, in that order: 68.7 µM, 0.49 µM and 9.3 µM.
For `CC(C)[C@H](NC(=O)c1c[nH]c2ncc(C3CC3)nc12)C(=O)NCc1cc(=O)c(O)c2n1CCN(C(C)C)C2=O`, in that order: 42 µM, 0.75 µM and 16.8 µM.
On to `CC(C)N1CCn2c(CNC(=O)[C@H](NC(=O)c3ccc4n[nH]c(=O)n4c3)c3ccccc3)cc(=O)c(O)c2C1=O`, for which the IC50 was over 50 µM in assay [1] and 1.45 µM in assay [3]. In assay [4], this compound gave a Kd of over 100 µM.
Turning to `CC(C)N1CCn2c(CNC(=O)c3cccc(NC(=O)c4n[nH]c5ncccc45)c3)cc(=O)c(O)c2C1=O` [drawing 29], binding in assay [4] was characterised by a dissociation constant (Kd) of 19.6 µM. For the same compound, the IC50 in assay [3] was determined as 1.22 µM.
On to `CC(C)N1CCn2c(CNCCNc3cc4[nH]ccc4c(Cl)n3)cc(=O)c(O)c2C1=O`, for which the figures for the IC50 in assay [1] and in assay [3] were over 50 µM and 0.58 µM, respectively.
As to `CC(C)N1CCn2c(CNC(=O)CNC(=O)c3ccc4n[nH]c(=O)n4c3)cc(=O)c(O)c2C1=O`, the values for the IC50 in assay [1] and in assay [3] were over 50 µM and 1.94 µM, respectively. The compound further showed an equilibrium dissociation constant (Kd) in assay [4] of 14.1 µM.
As for `CC(C)N1CCn2c(CNC(=O)c3ccc4n[nH]c(=O)n4c3)cc(=O)c(O)c2C1=O`, the IC50 in assay [1] was over 50 µM; in assay [3], 0.87 µM. Besides, the Kd in assay [4] is 187 µM.
In the case of `CC(C)N1CCn2c(CNC(=O)CC(NC(=O)c3c[nH]c4ncc(C5CC5)nc34)C3CC3)cc(=O)c(O)c2C1=O` (stereo not shown), the inhibition at 50 µM in assay [1] was found to be 10%. Also, half-maximal inhibition in assay [2] (IC50) required 0.14 µM.
For the compound `CC(C)N1CCn2c(CNC(=O)[C@H]3CCC[C@@H](Nc4nc(-c5n[nH]c6ncc(F)cc56)ncc4F)C3)cc(=O)c(O)c2C1=O`, the IC50 in assay [1] was 15.1 µM; in assay [3], over 25 µM.
Regarding `CC(C)N1CCn2c(CNC(=O)c3cccc(NC(=O)c4ccc5n[nH]c(=O)n5c4)c3)cc(=O)c(O)c2C1=O`, the figures for the IC50 in assay [1] and in assay [3] were 35.1 µM and 1.66 µM, respectively. In assay [4], this compound showed a Kd of 21.9 µM.
On the same counts, the results for `CC(C)N1CCn2c(CNc3nccc4[nH]ncc34)cc(=O)c(O)c2C1=O` are over 50 µM, 0.4 µM and over 100 µM.
For `CC(C)N1CCn2c(CNC(=O)CC(Nc3nc(-c4n[nH]c5ncc(F)cc45)ncc3F)C3CC3)cc(=O)c(O)c2C1=O` (stereo not shown), in that order: 48 µM, 19.7 µM and 8.16 µM.
As to `CCC(NC(=O)c1c[nH]c2ncc(C3CC3)nc12)C(=O)NCc1cc(=O)c(O)c2n1CCN(C(C)C)C2=O` (stereo not shown), the IC50 was over 50 µM in assay [1] and 0.46 µM in assay [3].
Take `CC(C)N1CCn2c(COC(=O)c3cccn4c(=O)[nH]nc34)cc(=O)c(O)c2C1=O`: the 50% inhibitory concentration (IC50) in assay [1] is over 50 µM; in assay [3] it was 0.41 µM. In assay [4], the Kd was over 100 µM.
Turning to `CC(C)N1CCn2c(CNC(=O)CCCCCNc3nc(C4=CN5C(=O)N=NC5C=C4)ncc3F)cc(=O)c(O)c2C1=O` (stereo not shown), the IC50 in assay [1] was over 25 µM; in assay [2], 5.35 µM.
Consider `CC(C)N1CCn2c(CNC(=O)c3cccn4c(=O)[nH]nc34)cc(=O)c(O)c2C1=O`, for which the IC50 in assay [1] was over 50 µM; in assay [3], 0.28 µM. The Kd in assay [4] was over 50 µM.
As for `CC(C)N1CCn2c(CNC(=O)c3c[nH]c4ncc(C5CC5)nc34)cc(=O)c(O)c2C1=O`, the IC50 was over 25 µM in assay [1] and 0.87 µM in assay [3]. For the same compound, the Kd in assay [4] came out at 12.8 µM.
For `CC(C)N1CCn2c(CNc3cc4[nH]ncc4c(Cl)n3)cc(=O)c(O)c2C1=O`, in that order: over 50 µM, 0.848 µM and 305 µM.
For `CC(C)N1CCn2c(COCCOc3nccc4[nH]ncc34)cc(=O)c(O)c2C1=O`, in that order: over 50 µM, 0.37 µM and over 100 µM.
`CC(C)N1CCn2c(CNC(=O)[C@H](NC(=O)c3c[nH]c4ncc(C5CC5)nc34)C3CC3)cc(=O)c(O)c2C1=O`: the inhibition at 50 µM in assay [1] turned out to be 47%. Moreover, the IC50 in assay [2] came to 0.22 µM.
As to `CC(C)N1CCn2c(CNc3cccc4n[nH]c(=O)n34)cc(=O)c(O)c2C1=O`, the IC50 in assay [1] is over 50 µM; in assay [3], 0.936 µM. For the same compound, in assay [4], the Kd was 99.3 µM.
On to `CC(C)N1CCn2c(CNC(=O)[C@H](NC(=O)c3c[nH]c4ncc(C5CC5)nc34)c3ccccc3)cc(=O)c(O)c2C1=O`, for which the IC50 in assay [1] stood at 8.2 µM; in assay [3], 2.34 µM.
For the compound `CC(C)N1CCn2c(CNC(=O)[C@H](NC(=O)c3cccn4c(=O)[nH]nc34)c3ccccc3)cc(=O)c(O)c2C1=O`, the IC50 in assay [1] is over 50 µM; in assay [3], 9.87 µM. Besides, the Kd in assay [4] is over 100 µM.
For the compound `CC(C)N1CCn2c(CNC(=O)[C@@H](Cc3cccc(Cl)c3)NC(=O)c3n[nH]c4ncccc34)cc(=O)c(O)c2C1=O`, the IC50 in assay [1] is over 50 µM; in assay [3] it was 1.09 µM. For the same compound, the affinity in assay [4], expressed as Kd, was 55.1 µM.
On the same counts, the results for `CC(C)N1CCn2c(CNC(=O)CCCCCNc3nc(-c4n[nH]c5ncc(F)cc45)ncc3F)cc(=O)c(O)c2C1=O` are 15 µM, 19.7 µM and 0.42 µM.
As for `CC(C)N1CCn2c(CNC(=O)CCCCCNC(=O)c3c[nH]c4ncc(C5CC5)nc34)cc(=O)c(O)c2C1=O`, the IC50 in assay [1] amounted to 31.8 µM; in assay [3], 0.57 µM. Further, the Kd in assay [4] turned out to be 6.36 µM.
For the compound `CC(C)N1CCn2c(CNC(=O)c3n[nH]c4ncccc34)cc(=O)c(O)c2C1=O`, the IC50 in assay [1] is over 50 µM; in assay [3], 0.4 µM. This compound returned a Kd in assay [4] of over 100 µM.
As for `CC(C)N1CCn2c(CNC(=O)C[C@H](NC(=O)c3c[nH]c4ncc(C5CC5)nc34)c3ccccc3)cc(=O)c(O)c2C1=O`, the IC50 in assay [1] is over 33.7 µM; in assay [2], 1.53 µM.
On to `CC(C)N1CCn2c(CNC(=O)c3cccc(Nc4nccc5[nH]ncc45)c3)cc(=O)c(O)c2C1=O`, for which the results for the IC50 in assay [1] and in assay [3] were 21.8 µM and 0.55 µM, respectively. Further, the Kd in assay [4] came out at 97.6 µM.
On the same counts, the results for `CC(C)N1CCn2c(CNC(=O)C3(NC(=O)c4cccn5c(=O)[nH]nc45)CCCCC3)cc(=O)c(O)c2C1=O` are over 50 µM, 2.84 µM and over 25 µM.
Regarding `CC(C)[C@@H](CC(=O)NCc1cc(=O)c(O)c2n1CCN(C(C)C)C2=O)Nc1nc(C2=CN3C(=O)N=NC3C=C2)ncc1F` (stereo partly shown), the IC50 in assay [1] was over 1.28 µM; in assay [2], 8.15 µM.
Regarding `CC(C)[C@H](NC(=O)c1cccn2c(=O)[nH]nc12)c1cc(=O)c(O)c2n1CCN(C(C)C)C2=O`, the results for the IC50 in assay [1] and in assay [3] were over 50 µM and 0.83 µM, respectively. In assay [4], this compound had a Kd of 163 µM.
Take `CCC(Nc1nc(-c2n[nH]c3ncc(F)cc23)ncc1F)C(=O)NCc1cc(=O)c(O)c2n1CCN(C(C)C)C2=O` (stereo not shown): the IC50 was over 50 µM in assay [1] and 12.2 µM in assay [3].
